Measured values from patent publication US11649255B2, “Indazoles as hematopoietic progenitor kinase 1 (HPK1) inhibitors and methods using same” (1st Biotherapeutics, Inc., priority 2020, dated 2023).
Like-named read-outs stand apart in the source and are kept apart here.

Legend:
recombinant human HPK1 = recombinant human HPK1 (Homo sapiens (Human), UniProt Q92918); assay: HPK1 kinase assay (ADP-Glo); type: biochemical; conditions: 25 μM ATP, MBP substrate
Procedure, shortened: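 Activity was read as ADP formed, detected by ADP-Glo luminescence after the reaction of 5 ng recombinant human HPK1 with MBP and ATP (stocks 0.5 μg/μl and 25 μM) for 40 min at 30 °C. Buffer was Tris pH 7.5 with MgCl2, BSA and DTT, with compound in 0.5% DMSO. IC50 came from inhibition curves.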

[1] = test system: human peripheral blood pan T cells; assay: IFNγ and IL-2 analysis of human peripheral pan T cells; type: cell-based; conditions: T-cell, CD3/CD28 bead stimulation, 100 nM Prostaglandin E2, 24 hr
Procedure, shortened: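 Human peripheral blood pan T cells (8×10^4) were preincubated 1 h with compounds plus 100 nM PGE2. They were then activated with anti-CD3/CD28 Dynabeads at a 1:3 cell:bead ratio. IFNγ and IL-2 were measured on a Meso Scale Discovery platform.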

[2] = IFNγ secretion, read-out: IFNγ (EC50)
[3] = IL-2 secretion, read-out: IL-2 (EC50)

Sequence of recombinant human HPK1 (Q92918 whole entry): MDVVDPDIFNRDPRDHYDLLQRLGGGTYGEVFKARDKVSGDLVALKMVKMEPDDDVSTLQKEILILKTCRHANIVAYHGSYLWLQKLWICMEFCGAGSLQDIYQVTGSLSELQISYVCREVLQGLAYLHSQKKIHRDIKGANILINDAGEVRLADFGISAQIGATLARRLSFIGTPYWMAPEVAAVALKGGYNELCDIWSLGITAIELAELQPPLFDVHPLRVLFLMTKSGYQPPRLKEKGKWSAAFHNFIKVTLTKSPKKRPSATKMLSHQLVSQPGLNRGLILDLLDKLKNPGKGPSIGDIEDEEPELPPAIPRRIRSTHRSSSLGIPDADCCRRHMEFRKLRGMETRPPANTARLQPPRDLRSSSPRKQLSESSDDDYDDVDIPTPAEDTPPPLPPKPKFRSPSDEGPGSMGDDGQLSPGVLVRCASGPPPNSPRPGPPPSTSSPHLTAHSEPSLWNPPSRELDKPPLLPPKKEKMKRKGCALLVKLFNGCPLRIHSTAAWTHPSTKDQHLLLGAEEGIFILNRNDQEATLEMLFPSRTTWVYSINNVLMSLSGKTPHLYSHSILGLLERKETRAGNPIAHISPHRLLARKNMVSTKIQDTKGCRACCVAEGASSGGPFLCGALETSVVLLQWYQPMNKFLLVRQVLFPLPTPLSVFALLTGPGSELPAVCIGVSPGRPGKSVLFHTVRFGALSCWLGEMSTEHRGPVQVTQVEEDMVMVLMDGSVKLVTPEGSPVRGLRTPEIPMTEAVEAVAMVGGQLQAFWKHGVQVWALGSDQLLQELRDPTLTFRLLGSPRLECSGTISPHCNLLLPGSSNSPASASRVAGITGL

IC50 (recombinant human HPK1) [nM]	EC50 [1, 2] [nM]	EC50 [1, 3] [nM]	Compound
< 100	200 to 1000	200 to 1000	CN(c1c(F)c(Cl)c(-c2ccn3nc(NC(=O)[C@@H]4C[C@@H]4F)cc3c2)c2cn[nH]c12)C1CC(O)C1 (stereo partly drawn) [Example 561, (1S,2S)-N-(5-(5-chloro-6-fluoro-7-((3-hydroxycyclobutyl)(methyl)amino)-1H-indazol-4-yl)pyrazolo[1,5-a]pyridin-2-yl)-2-fluorocyclopropane-1-carboxamide]
< 100	200 to 1000	200 to 1000	CCN(C)c1c(F)c(C)c(-c2ccn3nc(NC(=O)[C@@H]4C[C@@H]4F)cc3c2)c2cn[nH]c12 [Example 563, (1S,2S)-N-(5-(7-(ethyl(methyl)amino)-6-fluoro-5-methyl-1H-indazol-4-yl)pyrazolo[1,5-a]pyridin-2-yl)-2-fluorocyclopropane-1-carboxamide]
< 100	200 to 1000	200 to 1000	CCN(C)c1c(F)c(Cl)c(-c2ccn3nc(NC(=O)[C@@H]4C[C@@H]4F)cc3c2)c2cn[nH]c12 [Example 564, (1S,2S)-N-(5-(5-chloro-7-(ethyl(methyl)amino)-6-fluoro-1H-indazol-4-yl)pyrazolo[1,5-a]pyridin-2-yl)-2-fluorocyclopropane-1-carboxamide]
< 100	200 to 1000	200 to 1000	CN(C)c1c(F)c(C(F)(F)F)c(-c2ccn3nc(NC(=O)[C@@H]4C[C@@H]4F)cc3c2)c2cn[nH]c12 [Example 565, (1S,2S)-N-(5-(7-(dimethylamino)-6-fluoro-5-(trifluoromethyl)-1H-indazol-4-yl)pyrazolo[1,5-a]pyridin-2-yl)-2-fluorocyclopropane-1-carboxamide]
< 100	200 to 1000	> 1000	CSc1c(F)cc2[nH]ncc2c1-c1ccn2nc(NC(=O)C3CC3)cc2c1 [Example 569, N-(5-(6-fluoro-5-(methylthio)-1H-indazol-4-yl)pyrazolo[1,5-a]pyridin-2-yl)cyclopropanecarboxamide]
< 100	< 200	200 to 1000	Cc1c(F)c(C(=O)N(C)C)c2[nH]ncc2c1-c1ccn2nc(NC(=O)[C@@H]3C[C@@H]3F)cc2c1 [Example 570, 6-fluoro-4-(2-((1S,2S)-2-fluorocyclopropane-1-carboxamido)pyrazolo[1,5-a]pyridin-5-yl)-N,N,5-trimethyl-1H-indazole-7-carboxamide]
< 100	< 200	200 to 1000	CCN(C)c1c(F)c(SC)c(-c2ccn3nc(NC(=O)[C@@H]4C[C@@H]4F)cc3c2)c2cn[nH]c12 [Example 577, (1S,2S)-N-(5-(7-(ethyl(methyl)amino)-6-fluoro-5-(methylthio)-1H-indazol-4-yl)pyrazolo[1,5-a]pyridin-2-yl)-2-fluorocyclopropane-1-carboxamide]
< 100	< 200	> 1000	Cc1c(F)c(Cl)c(-c2ccn3nc(NC(=O)[C@@H]4C[C@@H]4F)cc3c2)c2cn[nH]c12 [Example 579, (1S,2S)-N-(5-(5-chloro-6-fluoro-7-methyl-1H-indazol-4-yl)pyrazolo[1,5-a]pyridin-2-yl)-2-fluorocyclopropane-1-carboxamide]
< 100	< 200	< 200	CCc1c(F)c(SCC#N)c2[nH]ncc2c1-c1ccn2nc(NC(=O)[C@@H]3C[C@@H]3F)cc2c1 [Example 588, (1S,2S)-N-(5-(7-((cyanomethyl)thio)-5-ethyl-6-fluoro-1H-indazol-4-yl)pyrazolo[1,5-a]pyridin-2-yl)-2-fluorocyclopropane-1-carboxamide]

Continued, compound first:

Compound	IC50 (recombinant human HPK1) [nM]	EC50 [1, 2] [nM]	EC50 [1, 3] [nM]
CSc1c(F)c(SC)c2[nH]ncc2c1-c1ccn2nc(NC(=O)[C@@H]3C[C@@H]3F)cc2c1 [Example 529, (1S,2S)-2-fluoro-N-(5-(6-fluoro-5,7-bis(methylthio)-1H-indazol-4-yl)pyrazolo[1,5-a]pyridin-2-yl)cyclopropane-1-carboxamide]	< 100	< 200	< 200
CSc1c(F)cc2[nH]ncc2c1-c1ccn2nc(NC(=O)[C@@H]3C[C@@H]3F)cc2c1 [Example 530, (1S,2S)-2-fluoro-N-(5-(6-fluoro-5-(methylthio)-1H-indazol-4-yl)pyrazolo[1,5-a]pyridin-2-yl)cyclopropane-1-carboxamide]	< 100	200 to 1000	200 to 1000
CCOc1c(F)c(CC)c(-c2ccn3nc(NC(=O)[C@@H]4C[C@@H]4F)cc3c2)c2cn[nH]c12 [Example 531, (1S,2S)-N-(5-(7-ethoxy-5-ethyl-6-fluoro-1H-indazol-4-yl)pyrazolo[1,5-a]pyridin-2-yl)-2-fluorocyclopropane-1-carboxamide]	< 100	< 200	200 to 1000
CCc1c(F)c(F)c2[nH]ncc2c1-c1ccn2nc(NC(=O)[C@@H]3C[C@@H]3F)cc2c1 [Example 532, (1S,2S)-N-(5-(5-ethyl-6,7-difluoro-1H-indazol-4-yl)pyrazolo[1,5-a]pyridin-2-yl)-2-fluorocyclopropane-1-carboxamide]	< 100	200 to 1000	
Cc1c(F)c(OCCO)c2[nH]ncc2c1-c1ccn2nc(NC(=O)[C@@H]3C[C@@H]3F)cc2c1 [Example 534, (1S,2S)-2-fluoro-N-(5-(6-fluoro-7-(2-hydroxyethoxy)-5-methyl-1H-indazol-4-yl)pyrazolo[1,5-a]pyridin-2-yl)cyclopropane-1-carboxamide]	< 100	< 200	
CSc1c(F)c(F)c2[nH]ncc2c1-c1ccn2nc(NC(=O)[C@@H]3C[C@@H]3F)cc2c1 [Example 541, (1S,2S)-N-(5-(6,7-difluoro-5-(methylthio)-1H-indazol-4-yl)pyrazolo[1,5-a]pyridin-2-yl)-2-fluorocyclopropane-1-carboxamide]	< 100	200 to 1000	
CCOc1c(F)c(SC)c(-c2ccn3nc(NC(=O)[C@@H]4C[C@@H]4F)cc3c2)c2cn[nH]c12 [Example 543, (1S,2S)-N-(5-(7-ethoxy-6-fluoro-5-(methylthio)-1H-indazol-4-yl)pyrazolo[1,5-a]pyridin-2-yl)-2-fluorocyclopropane-1-carboxamide]	< 100	< 200	200 to 1000
CC(=O)N(C)c1c(F)c(Cl)c(-c2ccn3nc(NC(=O)[C@@H]4C[C@@H]4F)cc3c2)c2cn[nH]c12 [Example 552, (1S,2S)-N-(5-(5-chloro-6-fluoro-7-(N-methylacetamido)-1H-indazol-4-yl)pyrazolo[1,5-a]pyridin-2-yl)-2-fluorocyclopropane-1-carboxamide]	< 100	200 to 1000	200 to 1000
CN(C)C(=O)c1c(F)c(Cl)c(-c2ccn3nc(NC(=O)[C@@H]4C[C@@H]4F)cc3c2)c2cn[nH]c12 [Example 556, 5-chloro-6-fluoro-4-(2-((1S,2S)-2-fluorocyclopropane-1-carboxamido)pyrazolo[1,5-a]pyridin-5-yl)-N,N-dimethyl-1H-indazole-7-carboxamide]	< 100	< 200	200 to 1000
Cc1c(F)c(N(C)CCO)c2[nH]ncc2c1-c1ccn2nc(NC(=O)[C@@H]3C[C@@H]3F)cc2c1 [Example 557, (1S,2S)-2-fluoro-N-(5-(6-fluoro-7-((2-hydroxyethyl)(methyl)amino)-5-methyl-1H-indazol-4-yl)pyrazolo[1,5-a]pyridin-2-yl)cyclopropane-1-carboxamide]	< 100	< 200	200 to 1000
CSc1c(F)c(N(C)C)c2[nH]ncc2c1-c1ccn2nc(NC(=O)[C@@H]3C[C@@H]3F)cc2c1 [Example 558, (1S,2S)-N-(5-(7-(dimethylamino)-6-fluoro-5-(methylthio)-1H-indazol-4-yl)pyrazolo[1,5-a]pyridin-2-yl)-2-fluorocyclopropane-1-carboxamide]	< 100	< 200	200 to 1000
